Test results: patent US20080045510A1, “Succinate salts of 6-methoxy-8-[4-(1-(5-fluoro)-quinolin-8-yl-piperidin-4-yl)-piperazin-1-yl]-quinoline and crystalline forms thereof” (Wyeth, priority 2006, published 2008)
One block for each compound: values may come before it.

Key:
[1] = solubility in aqueous media / water; format: physicochemical; settings: even in the presence of surfactants
[2] = in vivo

- hygroscopicity (believed): substantially non-hygroscopic
- conversion of crystalline form in water (upon dispersion in water for a few minutes in ambient conditions): convert to Form D
SMILES: COc1cc(N2CCN(C3CCN(c4ccc(F)c5cccnc45)CC3)CC2)c2ncccc2c1.O=C(O)CCC(=O)O.O=C(O)CCC(=O)O.O=C(O)CCC(=O)O [Form A, 6-methoxy-8-[4-(1-(5-fluoro)-quinolin-8-yl-piperidin-4-yl)-piperazin-1-yl]-quinoline trisuccinate]

- conversion of crystalline form in THF/heptane slurry (slurried for two hours in a mixture of THF and heptane in an ice/water bath): convert to Form A
SMILES: COc1cc(N2CCN(C3CCN(c4ccc(F)c5cccnc45)CC3)CC2)c2ncccc2c1.O=C(O)CCC(=O)O.O=C(O)CCC(=O)O.O=C(O)CCC(=O)O [Form B, 6-methoxy-8-[4-(1-(5-fluoro)-quinolin-8-yl-piperidin-4-yl)-piperazin-1-yl]-quinoline trisuccinate]

- solubility [1]: ~0.4 µg/mL
SMILES: COc1cc(N2CCN(C3CCN(c4ccc(F)c5cccnc45)CC3)CC2)c2ncccc2c1 [free base, 6-methoxy-8-[4-(1-(5-fluoro)-quinolin-8-yl-piperidin-4-yl)-piperazin-1-yl]-quinoline]

SMILES: COc1cc(N2CCN(C3CCN(c4ccc(F)c5cccnc45)CC3)CC2)c2ncccc2c1.O=C(O)CCC(=O)O.O=C(O)CCC(=O)O.O=C(O)CCC(=O)O [trisuccinate salt, 6-methoxy-8-[4-(1-(5-fluoro)-quinolin-8-yl-piperidin-4-yl)-piperazin-1-yl]-quinoline trisuccinate]
- bioavailability [2]: improved bioavailability over the free base
